Results published in ChEMBL document CHEMBL4308841, “Synthesis, in vitro antiproliferative activity, and kinase inhibitory effects of pyrazole-containing diarylureas and diarylamides” (Eur J Med Chem, 2018).

Key:
NCI-H322M = assay: Growth inhibition of human NCI-H322M cells assessed as cell growth at 0.01 uM incubated for 48 hrs by sulforhodamine B assay relative to control; type: functional; conditions: read-out: Activity
MDA-MB-435 = assay: Growth inhibition of human MDA-MB-435 cells assessed as cell growth at 1 uM incubated for 48 hrs by sulforhodamine B assay relative to control; type: functional; conditions: MDA-MB-435, 48 h, read-out: Activity
HL-60(TB) [1] = assay: Growth inhibition of human HL-60(TB) cells incubated for 48 hrs by sulforhodamine B assay; type: functional, cell-based; conditions: HL-60, 48 h
OVCAR-5 = assay: Growth inhibition of human OVCAR5 cells incubated for 48 hrs by sulforhodamine B assay; type: functional, cell-based; conditions: OVCAR-5, 48 h
SF-295 = assay: Growth inhibition of human SF295 cells assessed as cell growth at 1 uM incubated for 48 hrs by sulforhodamine B assay relative to control; type: functional; conditions: SF-295, 48 h, read-out: Activity
CAKI-1 = assay: Growth inhibition of human Caki1 cells incubated for 48 hrs by sulforhodamine B assay; type: functional, cell-based; conditions: CAKI-1, 48 h
SN12C = assay: Growth inhibition of human SN12C cells incubated for 48 hrs by sulforhodamine B assay; type: functional, cell-based
HCC 2998 = assay: Growth inhibition of human HCC2998 cells assessed as cell growth at 0.1 uM incubated for 48 hrs by sulforhodamine B assay relative to control; type: functional; conditions: HCC 2998, 48 h, read-out: Activity
MDA-MB-231 [2] = assay: Growth inhibition of human MDA-MB-231 cells assessed as cell growth at 100 uM incubated for 48 hrs by sulforhodamine B assay relative to control; type: functional; conditions: MDA-MB-231, 48 h, read-out: Activity
786-0 [3] = assay: Growth inhibition of human 786-0 cells incubated for 48 hrs by sulforhodamine B assay; type: functional, cell-based; conditions: 786-0, 48 h
PC-3 = assay: Growth inhibition of human PC3 cells assessed as cell growth at 100 uM incubated for 48 hrs by sulforhodamine B assay relative to control; type: functional; conditions: PC-3, 48 h, read-out: Activity
OVCAR-4 = assay: Growth inhibition of human OVCAR4 cells assessed as cell growth at 0.1 uM incubated for 48 hrs by sulforhodamine B assay relative to control; type: functional; conditions: OVCAR-4, 48 h, read-out: Activity
SW-620 = assay: Growth inhibition of human SW620 cells assessed as cell growth at 0.1 uM incubated for 48 hrs by sulforhodamine B assay relative to control; type: functional; conditions: SW-620, 48 h, read-out: Activity
HL-60(TB) [4] = assay: Growth inhibition of human HL-60(TB) cells assessed as cell growth at 100 uM incubated for 48 hrs by sulforhodamine B assay relative to control; type: functional; conditions: HL-60, 48 h, read-out: Activity
RXF 393 = assay: Growth inhibition of human RXF393 cells assessed as cell growth at 1 uM incubated for 48 hrs by sulforhodamine B assay relative to control; type: functional; conditions: RXF 393, 48 h, read-out: Activity
786-0 [5] = assay: Growth inhibition of human 786-0 cells assessed as cell growth at 0.01 uM incubated for 48 hrs by sulforhodamine B assay relative to control; type: functional; conditions: 786-0, 48 h, read-out: Activity
NCI-H460 = assay: Growth inhibition of human NCI-H460 cells incubated for 48 hrs by sulforhodamine B assay; type: functional, cell-based; conditions: NCI-H460, 48 h
MDA-MB-231 [6] = assay: Growth inhibition of human MDA-MB-231 cells incubated for 48 hrs by sulforhodamine B assay; type: functional, cell-based; conditions: MDA-MB-231, 48 h
RPMI-8226 = assay: Growth inhibition of human RPMI8226 cells assessed as cell growth at 0.1 uM incubated for 48 hrs by sulforhodamine B assay relative to control; type: functional; conditions: RPMI-8226, 48 h, read-out: Activity
HL-60(TB) [7] = assay: Growth inhibition of human HL-60(TB) cells assessed as cell growth at 0.01 uM incubated for 48 hrs by sulforhodamine B assay relative to control; type: functional; conditions: HL-60, 48 h, read-out: Activity
MCF7 = assay: Growth inhibition of human MCF7 cells assessed as cell growth at 100 uM incubated for 48 hrs by sulforhodamine B assay relative to control; type: functional; conditions: MCF7, 48 h, read-out: Activity
SNB-19 = assay: Growth inhibition of human SNB19 cells assessed as cell growth at 100 uM incubated for 48 hrs by sulforhodamine B assay relative to control; type: functional; conditions: SNB-19, 48 h, read-out: Activity
ACHN = assay: Growth inhibition of human ACHN cells assessed as cell growth at 0.01 uM incubated for 48 hrs by sulforhodamine B assay relative to control; type: functional; conditions: read-out: Activity
BT-549 [8] = assay: Growth inhibition of human BT549 cells assessed as cell growth at 0.01 uM incubated for 48 hrs by sulforhodamine B assay relative to control; type: functional; conditions: BT-549, 48 h, read-out: Activity
BT-549 [9] = assay: Growth inhibition of human BT549 cells incubated for 48 hrs by sulforhodamine B assay; type: functional, cell-based; conditions: BT-549, 48 h
T47D = assay: Growth inhibition of human T47D cells assessed as cell growth at 1 uM incubated for 48 hrs by sulforhodamine B assay relative to control; type: functional; conditions: read-out: Activity
NCI-H226 = assay: Growth inhibition of human NCI-H226 cells assessed as cell growth at 0.1 uM incubated for 48 hrs by sulforhodamine B assay relative to control; type: functional; conditions: NCI-H226, 48 h, read-out: Activity
MDA-MB-468 = assay: Growth inhibition of human MDA-MB-468 cells assessed as cell growth at 0.1 uM incubated for 48 hrs by sulforhodamine B assay relative to control; type: functional; conditions: MDA-MB-468, 48 h, read-out: Activity
[10] = read-out: LC50 (the source's name)
[11] = read-out: pLC50 (the source's name) (converted)

Structure (SMILES): COc1cc(Cl)cc(-c2nn(-c3cccc(NC(=O)Nc4cccc(C(F)(F)F)c4)c3)cc2-c2ccncc2)c1
- growth at 0.01 µM (NCI-H322M): 99%
- growth at 1 µM (MDA-MB-435): 85%
- GI50 (HL-60(TB) [1]; read-out: GI50): 1.91 µM
- LC50 (HL-60(TB) [1]; read-out: LC50): > 100 µM
- TGI (HL-60(TB) [1]; read-out: TGI): 55.1 µM
- GI50 (HL-60(TB) [1]; read-out: pGI50 (converted)): 1.91 µM
- LC50 (HL-60(TB) [1]; read-out: pLC50 (converted)): > 100 µM
- TGI (HL-60(TB) [1]; read-out: pTGI (converted)): 5.5 µM
- GI50 (OVCAR-5; read-out: GI50): 3.06 µM
- CC50 (OVCAR-5; [10]): > 100 µM
- TGI (OVCAR-5; read-out: TGI): 30.1 µM
- GI50 (OVCAR-5; read-out: pGI50 (converted)): 3.09 µM
- CC50 (OVCAR-5; [11]): > 100 µM
- TGI (OVCAR-5; read-out: pTGI (converted)): 30.2 µM
- growth at 1 µM (SF-295): 45%
- GI50 (CAKI-1; read-out: GI50): 1.29 µM
- CC50 (CAKI-1; [10]): > 100 µM
- TGI (CAKI-1; read-out: TGI): 52 µM
- GI50 (CAKI-1; read-out: pGI50 (converted)): 1.29 µM
- CC50 (CAKI-1; [11]): > 100 µM
- TGI (CAKI-1; read-out: pTGI (converted)): 8.91 µM
- GI50 (SN12C; read-out: GI50): 2.06 µM
- LC50 (SN12C; read-out: LC50): > 100 µM
- TGI (SN12C; read-out: TGI): 15.5 µM
- GI50 (SN12C; read-out: pGI50 (converted)): 2.04 µM
- LC50 (SN12C; read-out: pLC50 (converted)): > 100 µM
- TGI (SN12C; read-out: pTGI (converted)): 18.6 µM
- growth at 0.1 µM (HCC 2998): 98%
- growth at 100 µM (MDA-MB-231 [2]): -43%
- GI50 (786-0 [3]; read-out: GI50): 1.94 µM
- CC50 (786-0 [3]; [10]): 67.1 µM
- TGI (786-0 [3]; read-out: TGI): 57.5 µM
- GI50 (786-0 [3]; read-out: pGI50 (converted)): 1.95 µM
- CC50 (786-0 [3]; [11]): 67.6 µM
- TGI (786-0 [3]; read-out: pTGI (converted)): 6.76 µM
- growth at 100 µM (PC-3): -35%
- growth at 0.1 µM (OVCAR-4): 98%
- growth at 0.1 µM (SW-620): 100%
- growth at 100 µM (HL-60(TB) [4]): -28%
- growth at 1 µM (RXF 393): 68%
- growth at 0.01 µM (786-0 [5]): 99%
- GI50 (NCI-H460; read-out: GI50): 0.84 µM
- CC50 (NCI-H460; [10]): > 100 µM
- TGI (NCI-H460; read-out: TGI): 45.8 µM
- CC50 (NCI-H460; [11]): > 100 µM
- GI50 (MDA-MB-231 [6]; read-out: GI50): 1.59 µM
- CC50 (MDA-MB-231 [6]; [10]): > 100 µM
- TGI (MDA-MB-231 [6]; read-out: TGI): 49.1 µM
- GI50 (MDA-MB-231 [6]; read-out: pGI50 (converted)): 1.58 µM
- CC50 (MDA-MB-231 [6]; [11]): > 100 µM
- TGI (MDA-MB-231 [6]; read-out: pTGI (converted)): 4.9 µM
- growth at 0.1 µM (RPMI-8226): 98%
- growth at 0.01 µM (HL-60(TB) [7]): 96%
- growth at 100 µM (MCF7): -24%
- growth at 100 µM (SNB-19): -13%
- growth at 0.01 µM (ACHN): 108%
- growth at 0.01 µM (BT-549 [8]): 107%
- GI50 (BT-549 [9]; read-out: GI50): 2.22 µM
- CC50 (BT-549 [9]; [10]): > 100 µM
- TGI (BT-549 [9]; read-out: TGI): 55 µM
- GI50 (BT-549 [9]; read-out: pGI50 (converted)): 2.24 µM
- CC50 (BT-549 [9]; [11]): > 100 µM
- TGI (BT-549 [9]; read-out: pTGI (converted)): 5.62 µM
- growth at 1 µM (T47D): 58%
- growth at 0.1 µM (NCI-H226): 95%
- growth at 0.1 µM (MDA-MB-468): 92%
